Experimental findings from US9994546B2, “Cyclopropylamines as LSD1 inhibitors” (Incyte Corporation, priority 2014, dated 2018) are described below.

This assay concerns the target LSD-1 enzyme (Homo sapiens (Human), UniProt O60341). As to the kind of experiment: LANCE LSD1/KDM1A demethylase assay (LSD1 histone demethylase biochemical assay). As to conditions: 1 nM LSD-1 enzyme, 1 hour preincubation at 25° C., 0.4 μM biotin-labeled Histone H3 peptide substrate. Here is the method: LANCE LSD1/KDM1A demethylase assay—10 μL of 1 nM LSD-1 enzyme (ENZO BML-SE544-0050) in the assay buffer (50 mM Tris, pH 7.5, 0.01% Tween-20, 25 mM NaCl, 5 mM DTT) were preincubated for 1 hour at 25° C. with 0.8 μL compound/DMSO dotted in black 384 well polystyrene plates. […] After stopping the reactions plates were incubated for 30 minutes and read on a PHERAstar FS plate reader (BMG Labtech).
In general terms: In TR-FRET formats the signal depends on donor and acceptor labels being close together.
Broadly, the IC50 is the concentration needed to halve the response being measured. The low end stands for higher potency, the high end for lower potency. `N#CCC1(N2CCC(N[C@@H]3C[C@H]3c3ccccc3)CC2)CN(S(N)(=O)=O)C1` [Example 65, 3-(cyanomethyl)-3-(4-{[(1R,2S)-2-phenylcyclopropyl]amino}piperidin-1-yl)azetidine-1-sulfonamide] gave a half-maximal inhibitory concentration (IC50) of no more than 100 nM.
Next, `N#CCC1(N2CCC(N[C@@H]3C[C@H]3c3ccccc3)CC2)CN(C(=O)[C@H]2CCCO2)C1` [Example 117, {3-(4-{[(1R,2S)-2-phenylcyclopropyl]amino}piperidin-1-yl)-1-[(2R)-tetrahydrofuran-2-ylcarbonyl]azetidin-3-yl}acetonitrile]: no more than 100 nM.
Next, `CCOC(=O)N1CCC(CC#N)(N2CC(CN[C@@H]3C[C@H]3c3ccccc3)C2)CC1` (relative stereo) [Example 22, Ethyl 4-(cyanomethyl)-4-(3-{[(trans-2-phenylcyclopropyl)amino]methyl}azetidin-1-yl)piperidine-1-carboxylate]: no more than 100 nM.
Next, `COCC1(CN[C@@H]2C[C@H]2c2ccccc2)CCN(C2(CC(=O)O)CCC2)CC1` [Example 54, {1-[4-(methoxymethyl)-4-({[(1R,2S)-2-phenylcyclopropyl]amino}methyl)piperidin-1-yl]cyclobutyl}acetic acid]: no more than 100 nM; `N#CCC1(N2CCC(N[C@@H]3C[C@H]3c3ccccc3)CC2)CN(C(=O)C2CCOC2)C1` (stereo partly drawn) [Example 108, [3-(4-{[(1R,2S)-2-phenylcyclopropyl]amino}piperidin-1-yl)-1-(tetrahydrofuran-3-ylcarbonyl)azetidin-3-yl]acetonitrile]: no more than 100 nM.
With `CN1CC(CC#N)(N2CCC(CN[C@@H]3C[C@H]3c3ccccc3)CC2)C1` (relative stereo) [Example 49, [1-Methyl-3-(4-{[(trans-2-phenylcyclopropyl)amino]methyl}piperidin-1-yl)azetidin-3-yl]acetonitrile], the IC50 was no more than 100 nM.
As to `N#CC1(c2ccccc2)CCC(N2CC(CNC3CC3c3ccccc3)C2)CC1` (stereo not drawn) [Example 30, 1-Phenyl-4-(3-{[(trans-2-phenylcyclopropyl)amino]methyl}azetidin-1-yl)cyclohexanecarbonitrile], the IC50 is no more than 100 nM.
In turn, `COC(=O)N1CC(CC(=O)N(C)C)(N2CCC(N[C@@H]3C[C@H]3c3ccccc3)CC2)C1` [Example 94, methyl 3-[2-(dimethylamino)-2-oxoethyl]-3-(4-{[(1R,2S)-2-phenylcyclopropyl]amino}piperidin-1-yl)azetidine-1-carboxylate] registered a half-maximal inhibitory concentration (IC50) of no more than 100 nM.
The result for `O=C(O)CC1(N2CCC(CN[C@@H]3C[C@H]3c3ccccc3)CC2)CCC1` [Example 105, {1-[4-({[(1R,2S)-2-phenylcyclopropyl]amino}methyl)piperidin-1-yl]cyclobutyl}acetic acid] reads no more than 100 nM; that for `N#CCC1(N2CCC(CN[C@@H]3C[C@H]3c3ccccc3)CC2)CN(c2ccc(C#N)cc2)C1` (relative stereo) [Example 40, 4-[3-(Cyanomethyl)-3-(4-{[(trans-2-phenylcyclopropyl)amino]methyl}piperidin-1-yl)azetidin-1-yl]benzonitrile], no more than 100 nM; that for `CS(=O)(=O)N1CCC(CC#N)(N2CC(CN[C@@H]3C[C@H]3c3ccccc3)C2)CC1` (relative stereo) [Example 20, [1-(Methylsulfonyl)-4-(3-{[(trans-2-phenylcyclopropyl)amino]methyl}azetidin-1-yl)piperidin-4-yl]acetonitrile], no more than 100 nM.
For `N#CCC1(N2CCC(N[C@@H]3C[C@H]3c3ccccc3)CC2)CNC1` [Example 60, [3-(4-{[(1R,2S)-2-phenylcyclopropyl]amino}piperidin-1-yl)azetidin-3-yl]acetonitrile], the IC50 was no more than 100 nM.
The result for `CC(=O)N1CCC(CC#N)(N2CC(CN[C@@H]3C[C@H]3c3ccccc3)C2)CC1` (relative stereo) [Example 18, [1-Acetyl-4-(3-{[(trans-2-phenylcyclopropyl)amino]methyl}azetidin-1-yl)piperidin-4-yl]acetonitrile] reads no more than 100 nM.
